Test results: the supplement of paper PMC11616607

What was measured:
Assay in all cases: drug sensitivity score (DSS) from 5-point dose-response viability curve (DSS (area-under-curve based score)); higher = more sensitive (stronger growth inhibition or killing); extreme values may be limits of the assay
Settings in all cases: exposure time: 72 h; concentration range: 5 concentrations over 10,000-fold range
[1] = tested on: OVCAR4
Outline: (§1)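 Drugs in DMSO or water were acoustically dispensed (Echo 550) into 384-well plates at five concentrations across a 10,000-fold range. Ovarian cancer and normal ovarian cells (1,500 per well) were then added, incubated for 3 days at 37°C with 5% CO2, and read for viability by CellTiter-Glo luminescence on a PHERAstar FS. From these readings, Breeze software derived a drug sensitivity score per cell line and drug, with higher values meaning more sensitive and zero meaning no response.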

[2] = tested on: HOSE1C
Outline: as §1

[3] = tested on: Kuramochi
Outline: as §1

[4] = tested on: COV318
Outline: as §1

[5] = tested on: Ovsaho
Outline: as §1

[6] = tested on: CAOV3
Outline: as §1

[7] = tested on: JHOS2
Outline: as §1

[8] = tested on: COV362
Outline: as §1

[9] = tested on: OV90
Outline: as §1

[10] = tested on: HOSE2C
Outline: as §1

[11] = tested on: OVCAR8
Outline: as §1

[12] = tested on: OVCAR5
Outline: as §1

Structure (SMILES)	drug sensitivity score [1]	drug sensitivity score [2]	drug sensitivity score [3]	drug sensitivity score [4]	drug sensitivity score [5]	drug sensitivity score [6]	drug sensitivity score [7]	drug sensitivity score [8]	drug sensitivity score [9]	drug sensitivity score [10]	drug sensitivity score [11]	drug sensitivity score [12]
CNC(=O)c1ccc(C)c(-n2c(C)cc(OCc3ccc(F)cc3F)c(Br)c2=O)c1	0	0	0.7	0	0	0	0	0	0	0	0	0.6
CC(C)(C)c1nc(-c2cccc(NS(=O)(=O)c3c(F)cccc3F)c2F)c(-c2ccnc(N)n2)s1 [Dabrafenib]	0	0	0	0	0	0	1.5	0	17.9	0	0	0
CN[C@@H]1C[C@H]2O[C@@](C)([C@@H]1OC)n1c3ccccc3c3c4c(c5c6ccccc6n2c5c31)C(=O)N[C@H]4O [UCN-01]	13.8	27.8	14.6	18.7	23.8	19.3	15.3	17.8	22.8	29.7	18.8	18.1
Nc1ncnc2c1c(COc1cccc(Cl)c1)nn2C1CCOCC1	0	0	0.3	0	0	0	0	0	0	0	0	0.6
CCCCOc1nc(N)c2c(n1)N(Cc1cccc(CN3CCCC3)c1)CC(=O)N2 [Vesatolimod]	0.4	0	1	0	0	0	0	0	0	0	0	0
Nc1nc(NC2CC2)cc(-c2cccc(Cl)c2Cl)n1 [TH588]	1.8	0	1.6	0.9	3.7	1.9	0	0.4	0	0	2.4	1.9
C[C@@H](Oc1cc(-n2cnc3ccc(CN4CCN(C)CC4)cc32)sc1C(N)=O)c1ccccc1C(F)(F)F	3.6	13.7	7.7	6.8	24.7	22.4	15.3	3.6	19.6	10.1	29.1	19.4
COC[C@H](NC(=O)c1cnc(C)s1)C(=O)N[C@@H](COC)C(=O)N[C@@H](Cc1ccccc1)C(=O)[C@@]1(C)CO1 [Oprozomib]	15.2	18.8	9.6	24.5	16.1	21.7	23.9	15.1	21.4	17.1	12.6	15.4
S=c1[nH]cnc2nc[nH]c12 [Mercaptopurine]	12.3	0	7.7	0.1	5.5	12.4	4.1	6.4	4.4	0	8.6	7.3
C=CC(=O)N1CCC(Oc2cc3c(Nc4ccc(Cl)c(Cl)c4F)ncnc3cc2OC)CC1 [Poziotinib]	1.3	0.4	1.9	0	4.5	13.1	0.4	0	0	0	0	3.3
O=C(CCNC(=O)c1ccc(OC(F)(F)F)cc1)N[C@@H]1CCCc2ccccc21 [ML390]	0	19.8	5.3	4.1	4.1	0.6	3.4	0	5.6	13.4	4.9	2
FC(F)(F)c1ccc(/C=C/c2nc(COc3ccc(CCCCn4ccnn4)cc3)co2)cc1 [Mubritinib]	2.2	0	0.6	0.8	0.5	5.4	0.3	0	5.9	0	16.7	0.9
CONC(=O)c1ccccc1Nc1cc(Nc2cc(C)nn2C(C)C)ncc1Cl	0.1	0	1.4	0	3.1	0	0.1	0.2	0	0	0	0.3
CCN1CCN(Cc2ccc(Nc3ncc(F)c(-c4cc(F)c5nc(C)n(C(C)C)c5c4)n3)nc2)CC1 [Abemaciclib]	0	1.6	2.5	1	3.2	0.4	5.5	1.5	1.5	0.7	0.7	7.4
O=C1CN2Cc3c(ccc(Cl)c3Cl)N=C2N1 [Anagrelide]	0	0	0	0	0	0	0	0	0	0	0	0
O=C(NC[C@H](O)CN1CCc2ccccc2C1)c1cc(NC2COC2)ncn1	2	0	0.4	0.2	0	0	0.7	0	0	0	0	0.8
N#CC1(c2ccc(NC(=O)c3cccnc3NCc3ccncc3)cc2)CCCC1 [Apatinib]	0	0	0	0	0.3	0	0	0	0	0	0	0.5
CN(C)Cc1c(C(=O)NCCOc2ccc(C(=O)NO)cc2)oc2ccccc12 [Abexinostat]	10.5	24.1	14.6	10.1	10	13.7	11.8	5.6	16.5	20	19.9	21.7
O[C@H](C[C@H]1c2c(F)cccc2-c2cncn21)[C@H]1CC[C@H](O)CC1 [GDC-0919]	0.8	0	0.1	3	0	0.1	0.4	0	0	0	0.7	0.6
COc1cc2c(Oc3ccc(NC(=O)C4(C(=O)Nc5ccc(F)cc5)CC4)cc3F)ccnc2cc1OCCCN1CCOCC1 [Foretinib]	3.2	1.9	2.7	1.3	1.9	6.9	0.5	1.2	3.8	4.5	1	5.3
CCN(CC)CCN(Cc1ccc(-c2ccc(C(F)(F)F)cc2)cc1)C(=O)Cn1c(SCc2ccc(F)cc2)nc(=O)c2c1CCC2 [Darapladib]	0	0	1	0.2	2	0	0.3	2.4	0.6	0	0	0.9
CNC(=O)c1cc(COc2nnc(Nc3ccc(Cl)cc3)c3ccoc23)ccn1 [Telatinib]	0	0	0.1	0.2	0	0	0	0	0	0	0	0
Nc1cc(F)ccc1NC(=O)c1ccc(CNC(=O)/C=C/c2cccnc2)cc1 [Tucidinostat]	1.7	14.7	2.1	3.9	3	4.3	3.5	0	7.2	10.8	8	7
CO[C@H]1C[C@@H]2CC[C@@H](C)[C@@](O)(O2)C(=O)C(=O)N2CCCC[C@H]2C(=O)O[C@H]([C@H](C)C[C@@H]2CC[C@@H](OC(=O)C(C)(CO)CO)[C@H](OC)C2)CC(=O)[C@H](C)/C=C(\C)[C@@H](O)[C@@H](OC)C(=O)[C@H](C)C[C@H](C)/C=C/C=C/C=C/1C [Temsirolimus]	3.1	3.9	3.2	0	3	6.6	2.8	0	11.2	3.2	7.6	8
CO[C@H]1C(=O)[C@]2(C)[C@@H](OC)C[C@H]3OC[C@@]3(OC(C)=O)[C@H]2[C@H](OC(=O)c2ccccc2)[C@]2(O)C[C@H](OC(=O)[C@H](O)[C@@H](NC(=O)OC(C)(C)C)c3ccccc3)C(C)=C1C2(C)C [Cabazitaxel]	4.3	29.9	10.7	7.3	9	29.3	12.8	7.8	13.2	29.8	30.6	25.6
COC(=O)c1ccc([C@H]2c3[nH]c4ccccc4c3C[C@H](C(=O)OC)N2C(=O)CCl)cc1 [RSL3]	0	14.5	0	0	0	0	0	0	0	25.4	0	3.1
CCc1cnn2c(NCc3ccc[n+]([O-])c3)cc(N3CCCC[C@H]3CCO)nc12 [Dinaciclib]	15.7	28	13.1	15.9	17.9	17.9	19	13.6	21.2	15.4	20.7	17.9
COc1cc([C@@H]2c3cc4c(cc3[C@@H](O[C@@H]3O[C@@H]5CO[C@@H](c6cccs6)O[C@H]5[C@H](O)[C@H]3O)[C@H]3COC(=O)[C@H]23)OCO4)cc(OC)c1O [Teniposide]	0	0	0	0	0	0	0	0	0	0	0	0
COc1cc(Nc2c(C#N)cnc3cc(OCCCN4CCN(C)CC4)c(OC)cc23)c(Cl)cc1Cl [Bosutinib]	5.7	6.8	8.8	2	10.5	8	7	8.5	8.7	6.2	6.7	9.4
O=c1[nH]c(C2CCCN2)nc2c1oc1ccc(Cl)cc12 (stereo not given)	0	2.6	0	0	0	3.5	0	0	0.2	0.9	0	4
